Data on 44 compounds can be found in paper doi:10.1101/2021.10.07.463234v2 (biorxiv, 2021).

Structures can show the parent of a compound that is named as a salt. Bridge positions count the residues as written; N and C are the ends. Peptide text beside a SMILES is read from it.

This test deals with SARS-CoV-2 Mac1 (Severe acute respiratory syndrome coronavirus 2, UniProt P0DTD1). In words: biochemical. As to conditions: for inhibition at 100 µM: read-out: %inhibition; for %inhibition: 100 µM, inhibitor.

In general, inhibition refers to the relative decrease from the control value, in per cent. Regarding `C=CC[C@@H]1/C=C(\C)C[C@H](C)C[C@H](OC)[C@H]2O[C@@](O)(C(=O)C(=O)N3CCCC[C@H]3C(=O)O[C@H](/C(C)=C/[C@@H]3CC[C@@H](O)[C@H](OC)C3)[C@H](C)[C@@H](O)CC1=O)[C@H](C)C[C@@H]2OC` [Tacrolimus (FK506)], the inhibition at 100 µM is 29.6%.
On to `CN1CC(=O)N2[C@H](c3ccc4c(c3)OCO4)c3[nH]c4ccccc4c3C[C@@H]2C1=O` [Tadalafil], for which the inhibition at 100 µM is 20.7%.
On to `CC(C)OC(=O)CCC/C=C\C[C@@H]1[C@@H](/C=C/C(F)(F)COc2ccccc2)[C@H](O)C[C@@H]1O` [Tafluprost], for which the inhibition at 100 µM stood at 4.8%.
On the same count and under the same terms, next, `CC1(C)CCC(C)(C)c2cc(NC(=O)c3ccc(C(=O)O)cc3)ccc21` [Tamibarotene]: 1.99%; `CCOc1ccccc1OCCN[C@H](C)Cc1ccc(OC)c(S(N)(=O)=O)c1` [Tamsulosin hydrochloride]: 0%; `C=CCNC1=C2C[C@@H](C)C[C@H](OC)[C@H](O)[C@@H](C)/C=C(\C)[C@H](OC(N)=O)[C@@H](OC)/C=C\C=C(/C)C(=O)NC(=CC1=O)C2=O` [Tanespimycin (17-AAG)]: 3.81%.
The same measure, in the same setting: under `CCC(=O)NC[C@@H]1C[C@H]1c1cccc2c1CCO2` [Tasimelteon] stands 0%; under `O=C(NS(=O)(=O)c1ccc(Br)s1)c1ccc(Cl)cc1Cl` [Tasisulam], 0%.
As for `NCCS(=O)(=O)O` [Taurine], the inhibition at 100 µM was 0%.
Same read-out and setting: next, `OB1OCc2cc(F)ccc21` [Tavaborole (AN-2690)]: 0.84%; `CCOC(=O)c1ccc(C#Cc2ccc3c(c2)C(C)(C)CCS3)nc1` [Tazarotene]: 0%.
Still for that read-out and setting: under `C[C@]1(Cn2ccnn2)[C@H](C(=O)O)N2C(=O)C[C@H]2S1(=O)=O` [Tazobactam] stands 6.81%; under `C[C@@H](O)[C@H]1C(=O)N2C(C(=O)OCOC(=O)C(C)(C)C)=C(SC3CN(C4=NCCS4)C3)[C@H](C)[C@H]12` [Tebipenem Pivoxil], 1.32%.
Still for that read-out and setting: under `Cn1nnc(-c2ccc(-c3ccc(N4C[C@H](COP(=O)(O)O)OC4=O)cc3F)cn2)n1` [Tedizolid Phosphate] stands 0%; under `Cn1nnc(-c2ccc(-c3ccc(N4C[C@H](CO)OC4=O)cc3F)cn2)n1` [Tedizolid], 0%; under `O=c1[nH]c(=O)n(C2CCCO2)cc1F` (centres unmarked) [Tegafur (FT-207, NSC 148958)], 0%.
`CCCCCNC(=N)N/N=C/c1c[nH]c2ccc(OC)cc12` [Tegaserod Maleate]: the inhibition at 100 µM was determined as 1.73%.
A word on the %inhibition: it is the relative decrease from the control value, in per cent. Consider `CCC[C@H](NC(=O)[C@@H]1[C@H]2CCC[C@H]2CN1C(=O)[C@@H](NC(=O)[C@@H](NC(=O)c1cnccn1)C1CCCCC1)C(C)(C)C)C(=O)C(=O)NC1CC1` [Telaprevir (VX-950)], for which the “%inhibition” value amounted to 0%.
As for `Cc1cn([C@@H]2C[C@@H](O)[C@H](CO)O2)c(=O)[nH]c1=O` [Telbivudine], the inhibition at 100 µM was 0%.
Take `CCCc1nc2c(C)cc(-c3nc4ccccc4n3C)cc2n1Cc1ccc(-c2ccccc2C(=O)O)cc1` [Telmisartan]: the inhibition at 100 µM is 27.9%.
On the same count and under the same terms, next, `CCOC(=O)[C@@H](N)Cc1ccc(-c2cc(O[C@H](c3ccc(Cl)cc3-n3ccc(C)n3)C(F)(F)F)nc(N)n2)cc1` [Telotristat Etiprate (LX 1606 Hippurate)]: 0%; `CCOC(=O)[C@H](CCc1ccccc1)N[C@H]1CS[C@H](c2cccs2)CN(CC(=O)O)C1=O` [Temocapril HCl]: 0%; `Cn1nnc2c(C(N)=O)ncn2c1=O` [Temozolomide]: 34.1%.
On the same count and under the same terms, next, `CO[C@H]1C[C@@H]2CC[C@@H](C)[C@@](O)(O2)C(=O)C(=O)N2CCCC[C@H]2C(=O)O[C@H]([C@H](C)C[C@@H]2CC[C@@H](OC(=O)C(C)(CO)CO)[C@H](OC)C2)CC(=O)[C@H](C)/C=C(\C)[C@@H](O)[C@@H](OC)C(=O)[C@H](C)C[C@H](C)/C=C/C=C/C=C/1C` [Temsirolimus (CCI-779, NSC 683864)]: 14.6%; `Cc1cc(N2CCN([C@@H]3CN[C@H](C(=O)N4CCSC4)C3)CC2)n(-c2ccccc2)n1` [Teneligliptin hydrobromide]: 6.56%; `COc1cc([C@@H]2c3cc4c(cc3[C@@H](O[C@@H]3O[C@@H]5CO[C@@H](c6cccs6)O[C@H]5[C@H](O)[C@H]3O)[C@H]3COC(=O)[C@H]23)OCO4)cc(OC)c1O` [Teniposide]: 12.8%.
On the same count and under the same terms, under `CC(C)OC(=O)[C@H](C)N[P@](=O)(CO[C@H](C)Cn1cnc2c(N)ncnc21)Oc1ccccc1` [Tenofovir Alafenamide (GS-7340)] stands 10.7%; under `CC(C)OC(=O)OCOP(=O)(CO[C@H](C)Cn1cnc2c(N)ncnc21)OCOC(=O)OC(C)C` [Tenofovir Disoproxil Fumarate], 0%.
Consider `C[C@H](Cn1cnc2c(N)ncnc21)OCP(=O)(O)O` [Tenofovir], for which the inhibition at 100 µM was 0%.
The same measure, in the same setting: next, `CN1C(C(=O)Nc2ccccn2)=C(O)c2sccc2S1(=O)=O` [Tenoxicam]: 0%; `CN1CCC(COc2cnc(-c3cccc(Cn4nc(-c5cccc(C#N)c5)ccc4=O)c3)nc2)CC1` [Tepotinib (EMD 1214063)]: 0%.
The same measure, in the same setting: next, `CC(=O)CC/C=C(\C)CC/C=C(\C)CC/C=C(\C)CCC=C(C)C` [Teprenone]: 30.7%.
In the case of `COc1cc2nc(N3CCN(C(=O)C4CCCO4)CC3)nc(N)c2cc1OC` (centres unmarked) [Terazosin HCl Dihydrate], the “%inhibition” value is 6.293%.
The same measure, in the same setting: next, `COc1cc2nc(N3CCN(C(=O)C4CCCO4)CC3)nc(N)c2cc1OC` (centres unmarked) [Terazosin HCl]: 2.055%; `CN(C/C=C/C#CC(C)(C)C)Cc1cccc2ccccc12` [Terbinafine HCl]: 13.33%.
On the same count and under the same terms, under `CN(C/C=C/C#CC(C)(C)C)Cc1cccc2ccccc12` [Terbinafine] stands 49.96%.
For the compound `CC(C)(C)NCC(O)c1cc(O)cc(O)c1` (centres unmarked) [Terbutaline Sulfate], the inhibition at 100 µM turned out to be 0%.
On the same count and under the same terms, under `CC(C)(C)c1ccc(C(O)CCCN2CCC(C(O)(c3ccccc3)c3ccccc3)CC2)cc1` (centres unmarked) [Terfenadine] stands 11%; under `C/C(O)=C(\C#N)C(=O)Nc1ccc(C(F)(F)F)cc1` [Teriflunomide], 12.5%.
The same measure, in the same setting: under `NCCCC[C@H](NC(=O)[C@@H]1CCCN1C(=O)[C@@H]1CSSC[C@H](NC(=O)CNC(=O)CNC(=O)CN)C(=O)N[C@@H](Cc2ccc(O)cc2)C(=O)N[C@@H](Cc2ccccc2)C(=O)N[C@@H](CCC(N)=O)C(=O)N[C@@H](CC(N)=O)C(=O)N1)C(=O)NCC(N)=O` [Terlipressin Acetate] (H-GGGCYFQNCPKG-NH2; disulfide 4-9) stands 0%; under `CC1(O)CCC(C(C)(C)O)CC1` (centres unmarked) [Terpin hydrate], 0%; under `CCCCCCC(=O)O[C@H]1CC[C@H]2[C@@H]3CCC4=CC(=O)CC[C@]4(C)[C@H]3CC[C@]12C` [Testosterone Enanthate], 0%.
The same measure, in the same setting: under `COc1cc2c(cc1OC)[C@H]1CC(=O)[C@H](CC(C)C)CN1CC2` [Tetrabenazine (Xenazine)] stands 18.7%; under `CCCCNc1ccc(C(=O)OCCN(C)C)cc1` [Tetracaine HCl], 9.17%.
